Assay results published in patent US10131652B2, “Pyrimidinyloxy benzene derivatives as herbicides” (E. I. DU PONT DE NEMOURS AND COMPANY, priority 2014, dated 2018).
Where two headings read alike, the source gives them in different places.

How the values were obtained:
Format in all cases: in vivo
[1] = tested on: giant foxtail (Setaria faberii); experiment: Test B pre-/postemergence plant response; settings: for pest or weed control at 31 g/ha: 31 g ai/ha
Summary of the method: (§1)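 Ratings reflect visual injury versus untreated controls, from 0 for no effect to 100 for complete control, assessed roughly 10 days after treatment. Formulation: non-phytotoxic solvent mix with surfactant; pre- and postemergence sprays on plants grown in loam soil and sand.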

[2] = tested on: wheat (Triticum aestivum); experiment: Test B pre-/postemergence plant response; settings: Triticum aestivum, post-emergence, 240 h, read-out: Plant response rating, Wheat
Summary of the method: as §1

[3] = tested on: pigweed (Amaranthus retroflexus); experiment: Test B pre-/postemergence plant response; settings: for pest or weed control at 31 g/ha: 31 g ai/ha
Summary of the method: as §1

[4] = tested on: barnyardgrass (Echinochloa crus-galli); experiment: Test B pre-/postemergence plant response; settings: for pest or weed control at 31 g/ha: 31 g ai/ha
Summary of the method: as §1

corn (Zea mays) = experiment: Test B pre-/postemergence plant response; settings: Zea mays, post-emergence, 240 h
Summary of the method: as §1

[5] = tested on: galium (catchweed bedstraw, Galium aparine); experiment: Test D pre-/postemergence plant response; settings: Galium; for pest or weed control at 31 g/ha: 31 g ai/ha; for pest or weed control at 62 g/ha: 62 g ai/ha; for pest or weed control at 125 g/ha: 125 g ai/ha
Summary of the method: (§2)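 Pre-/post-emergence greenhouse test. Pre: seeded loam+sand, sprayed same day. Post: 1–4 leaf plants (2–18 cm), peat/vermiculite mix. Formulation: non-phytotoxic solvent + surfactant. Scored visually d13–15, 0–100 vs control.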

[6] = tested on: winter wheat (Triticum aestivum); experiment: Test D pre-/postemergence plant response; settings: Triticum aestivum; for plant injury at 31 g/ha: 31 g ai/ha; for plant injury at 62 g/ha: 62 g ai/ha; for plant injury at 125 g/ha: 125 g ai/ha
Summary of the method: as §2

[7] = tested on: large (Lg) crabgrass (Digitaria sanguinalis); experiment: Test D pre-/postemergence plant response; settings: Digitaria sanguinalis; for pest or weed control at 16 g/ha: 16 g ai/ha; for pest or weed control at 31 g/ha: 31 g ai/ha; for pest or weed control at 62 g/ha: 62 g ai/ha; for pest or weed control at 125 g/ha: 125 g ai/ha
Summary of the method: as §2

[8] = tested on: ragweed (common ragweed, Ambrosia elatior); experiment: Test D pre-/postemergence plant response; settings: Ambrosia artemisiifolia; for pest or weed control at 31 g/ha: 31 g ai/ha; for pest or weed control at 62 g/ha: 62 g ai/ha; for pest or weed control at 125 g/ha: 125 g ai/ha
Summary of the method: as §2

[9] = tested on: Italian ryegrass (Lolium multiflorum); experiment: Test D pre-/postemergence plant response; settings: Lolium multiflorum, post-emergence; Postemergence, 31 g ai/ha; scale 0 to 100 (0 no effect, 100 complete control); read-out: Ryegrass, Italian plant response rating
Summary of the method: as §2

[10] = Preemergence, 125 g ai/ha, 0 to 100 scale (0 no effect, 100 complete control)
[11] = 125 g ai/ha, postemergence, 0 to 100 scale, 0 no effect, 100 complete control
[12] = Postemergence, 31 g ai/ha, 0 to 100 scale (0 no effect, 100 complete control)
[13] = post-emergence, Postemergence, scale 0 to 100, 0 no effect, 100 complete control, read-out: Plant response rating, Galium
[14] = pre-emergence, Preemergence, scale 0 to 100 (0 no effect, 100 complete control), read-out: Plant response rating, Galium
[15] = post-emergence, Postemergence, scale 0 to 100, 0 no effect, 100 complete control, read-out: Plant response rating, Wheat
[16] = pre-emergence, Preemergence, scale 0 to 100 (0 no effect, 100 complete control), read-out: Plant response rating, Wheat
[17] = post-emergence, Postemergence, scale 0 to 100 (0 no effect, 100 complete control), read-out: Crabgrass, Large plant response rating
[18] = post-emergence, Postemergence, scale 0 to 100, 0 no effect, 100 complete control, read-out: Plant response rating, Crabgrass, Large
[19] = pre-emergence, Preemergence, scale 0 to 100 (0 no effect, 100 complete control), read-out: Plant response rating, Crabgrass, Large
[20] = post-emergence, Postemergence, scale 0 to 100, 0 no effect, 100 complete control, read-out: Plant response rating, Ragweed
[21] = pre-emergence, Preemergence, scale 0 to 100 (0 no effect, 100 complete control), read-out: Plant response rating, Ragweed

`Fc1cccc(Oc2ncc(Cl)cn2)c1-c1cc(C(F)F)no1` [Compound 144, 5-chloro-2-[2-[3-(difluoromethyl)-5-isoxazolyl]-3-fluorophenoxy]pyrimidine] was tested, and the “Foxtail, Giant plant response rating” value [1, 10] was 100, the pest or weed control at 125 g/ha ([1]; Setaria faberi, post-emergence, 240 h, 125 g ai/ha, postemergence, 0 to 100 scale, 0 no effect, 100 complete control, read-out: Plant response rating, Foxtail, Giant) was 100% and the pest or weed control at 31 g/ha ([1]; Setaria faberi, post-emergence, 240 h, Postemergence, 0 to 100 scale (0 no effect, 100 complete control), read-out: Plant response rating, Foxtail, Giant) was 80%. For the same compound, the pest or weed control at 31 g/ha ([1]; Setaria faberi, pre-emergence, 240 h, Preemergence, 0 to 100 scale where 0 is no effect and 100 is complete control, read-out: Plant response rating, Foxtail, Giant) was 100%, the plant injury at 125 g/ha [2, 11] was 90% and the plant injury at 31 g/ha [2, 12] was 30%. For the same compound, the pest or weed control at 125 g/ha ([3]; Amaranthus retroflexus, post-emergence, 240 h, 125 g ai/ha, postemergence, 0 to 100 scale, 0 no effect, 100 complete control, read-out: Plant response rating, Pigweed) was 100%, the pest or weed control at 31 g/ha ([3]; Amaranthus retroflexus, post-emergence, 240 h, Postemergence, 0 to 100 scale (0 no effect, 100 complete control), read-out: Plant response rating, Pigweed) was 100% and the pest or weed control at 31 g/ha ([3]; Amaranthus retroflexus, pre-emergence, 240 h, Preemergence, 0 to 100 scale where 0 is no effect and 100 is complete control, read-out: Plant response rating, Pigweed) was 100%. For the same compound, the “Pigweed plant response rating” value [3, 10] was 100, the pest or weed control at 125 g/ha ([4]; Echinochloa crus-galli, post-emergence, 240 h, 125 g ai/ha, postemergence, 0 to 100 scale, 0 no effect, 100 complete control, read-out: Plant response rating, Barnyardgrass) was 100% and the pest or weed control at 31 g/ha ([4]; Echinochloa crus-galli, post-emergence, 240 h, Postemergence, 0 to 100 scale (0 no effect, 100 complete control), read-out: Plant response rating, Barnyardgrass) was 30%. For the same compound, the pest or weed control at 31 g/ha ([4]; Echinochloa crus-galli, pre-emergence, 240 h, Preemergence, 0 to 100 scale where 0 is no effect and 100 is complete control, read-out: Plant response rating, Barnyardgrass) was 80%, the “Barnyardgrass plant response rating” value [4, 10] was 100 and the Corn plant response rating (crop injury, 0 = no effect, 100 = complete kill) at 125 g/ha (corn (Zea mays); [11]) was 90%. The Corn plant response rating (crop injury, 0 = no effect, 100 = complete kill) at 31 g/ha (corn (Zea mays); [12]) was 30%, the pest or weed control at 31 g/ha ([5]; post-emergence, Postemergence, scale 0 to 100 (0 no effect, 100 complete control), read-out: Galium plant response rating) was 85% and the pest or weed control at 62 g/ha [5, 13] was 90%. It also gave a pest or weed control at 125 g/ha [5, 13] of 95%, a pest or weed control at 125 g/ha ([5]; pre-emergence, Preemergence, read-out: Plant response rating (scale 0 to 100), Galium) of 98% and a pest or weed control at 16 g/ha ([5]; pre-emergence, Preemergence, 16 g ai/ha, scale 0 to 100 (0 no effect, 100 complete control), read-out: Plant response rating, Galium) of 95%. The pest or weed control at 31 g/ha [5, 14] was 98%, the pest or weed control at 62 g/ha [5, 14] was 98% and the plant injury at 31 g/ha ([6]; post-emergence, Postemergence, scale 0 to 100 (0 no effect, 100 complete control), read-out: Wheat plant response rating) was 10%. The plant injury at 62 g/ha [6, 15] was 10%, the plant injury at 125 g/ha [6, 15] was 10% and the plant injury at 125 g/ha ([6]; pre-emergence, Preemergence, read-out: Plant response rating (scale 0 to 100), Wheat) was 25%. It also gave a plant injury at 16 g/ha ([6]; pre-emergence, Preemergence, 16 g ai/ha, scale 0 to 100 (0 no effect, 100 complete control), read-out: Plant response rating, Wheat) of 0%, a plant injury at 31 g/ha [6, 16] of 5% and a plant injury at 62 g/ha [6, 16] of 25%. It also gave a pest or weed control at 16 g/ha [7, 17] of 5%, a pest or weed control at 31 g/ha [7, 17] of 10% and a pest or weed control at 62 g/ha [7, 18] of 15%. The pest or weed control at 125 g/ha [7, 18] was 20%, the pest or weed control at 125 g/ha ([7]; pre-emergence, Preemergence, read-out: Plant response rating (scale 0 to 100), Crabgrass, Large) was 100% and the pest or weed control at 16 g/ha [7, 19] was 90%. The pest or weed control at 31 g/ha [7, 19] was 98%, the pest or weed control at 62 g/ha [7, 19] was 100% and the pest or weed control at 31 g/ha ([8]; post-emergence, Postemergence, scale 0 to 100 (0 no effect, 100 complete control), read-out: Ragweed plant response rating) was 60%. It also gave a pest or weed control at 62 g/ha [8, 20] of 70%, a pest or weed control at 125 g/ha [8, 20] of 75% and a pest or weed control at 125 g/ha ([8]; pre-emergence, Preemergence, read-out: Plant response rating (scale 0 to 100), Ragweed) of 100%. The pest or weed control at 16 g/ha ([8]; pre-emergence, Preemergence, 16 g ai/ha, scale 0 to 100 (0 no effect, 100 complete control), read-out: Plant response rating, Ragweed) was 75%, the pest or weed control at 31 g/ha [8, 21] was 85% and the pest or weed control at 62 g/ha [8, 21] was 100%. For the same compound, the pest or weed control at 31 g/ha [9] was 5%.
